# Laboratory results from patent US20100256147A1, “BIARYL ACETAMIDE DERIVATIVES AS MODULATORS OF THE KINASE CASCADE FOR THE TREATMENT OF HEARING LOSS, OSTEOPOROSIS AND CELL PROLIFERATION DISORDERS” (priority 2007, published 2010).
# Legend:
# Type in all cases: cell-based
# HT29 = assay: BrdU cell growth inhibition, HT29; conditions: Homo sapiens, HT-29; HT29 cells; read-out: HT29 GI 50
# Method: (§1) The GI50s for the compounds of the invention is assayed as described herein.
# The HT29 cell line is a NCI standard human colon carcinoma cell line. HT-29 cells are obtained from ATCC at passage 125 and are used for inhibition studies between passage 126-151. HT29 cells are routinely cultured in McCoy's 5A medium supplemented with Fetal Bovine Serum (1.5% v/v) and L-glutamine (2 mM).
# In the BrdU Assay for cell growth inhibition, quantitation of cell proliferation is based on the measurement of BrdU incorporation during DNA synthesis. The Cell Proliferation ELISA BrdU assay kit (colorimetric) is obtained from Roche Applied Science and performed as per vendor instructions.
# The growth inhibition (G1) is determined from the formula G1=(T0−Tr×100/T0−CONn) where T0 is the BrdU growth of untreated cells at time “0”, Tn, is the BrdU growth of treated cells at day “n” and CONn is the control BrdU growth of control cells at day “n”. The GI50 is extrapolated and the data plotted using XL-Fit 4.0 software. […]
# (§2) Seeded 96 well plates are allowed to attach overnight for 18-24 hours, either at 37° C. and 5% CO2 for HT-29 or at 37° C. and 10% CO2 for c-Src 3T3. Approx 18-24 hours after seeding, the initial growth of cells (T0) is determined for untreated cells using the BrdU assay. […] Plates are assayed for BrdU and the data is analyzed as above for GI50.
# c-Src527F/NIH 3T3 = assay: BrdU cell growth inhibition, c-Src527F/NIH 3T3; conditions: Mus musculus, NIH3T3; c-Src527F/NIH 3T3 cells; read-out: c-Src527F/NIH 3T3 GI 50
# Method: as §1
# The c-Src 3T3 is a mouse fibroblast NIH 3T3 normal cell line that has been transfected with a point-mutant of human c-Src wherein tyrosine 527 has been converted to a phenylalanine. This mutation results in “constitutively active” c-Src because phosphorylation on tyrosine 527 results in auto-inhibition of Src by having it fold back on its own SH2 domain. With a Phe there, this phosphorylation can't occur and therefore auto-inhibition can't occur. Thus, the always fully active mutant Src then converts the normal mouse fibroblasts into rapidly growing tumor cells. […]
# In the BrdU Assay for cell growth inhibition, quantitation of cell proliferation is based on the measurement of BrdU incorporation during DNA synthesis. […]
# The growth inhibition (G1) is determined from the formula G1=(T0−Tr×100/T0−CONn) where T0 is the BrdU growth of untreated cells at time “0”, Tn, is the BrdU growth of treated cells at day “n” and CONn is the control BrdU growth of control cells at day “n”. […]
# as §2
# Ba/F3-JAK3 = Ba/F3-JAK3 cell growth inhibition; conditions: Ba/F3-JAK3 cells
# Ba/F3-JAK2 = Ba/F3-JAK2 cell growth inhibition; conditions: Ba/F3-JAK2 cells
# PLC/PRF/5 = assay: MTT growth inhibition, PLC/PRF/5; conditions: Homo sapiens, 8.0×10^3 cells/wells, 1.5% FBS, 78 Hr, normalized response data
# Method: (§3) Samples of the test compounds are formulated in 100% DMSO to obtain 20 mM stock solutions; stored @ 4° C. The IC50s and IC80s are determined as described below. Huh7, WRL-68, PLC/PRF/5, Hep 3B, and Hep G2 human cancer lines are routinely cultured and maintained in a basal medium containing 2% FBS @ 37° C., 5% CO2. Cells are seeded @ 4.0×10^3/190 μl and 8.0×10^3/190 μl per well of a 96-well plate. The assay medium is basal medium/1.5% FBS. […] The test article dilutions are prepared as follows: 20 mM stock solution samples are diluted serially in basal medium/1.5% FBS using 1:3 dilutions, yielding 20× concentrations; 131 μM to 0.24 nM range. 10 μL of 20× dilutions are added to the appropriate wells (n=3) containing 190 μL cancer cell line; 6561 nM to 0.012 nM range of final concentrations. Vehicle control contains cells, no sample. Medium control contains cells, no sample, 0.03% DMSO (highest DMSO concentration present in samples). The treated cells are incubated for 72 hours at 37° C., 5% CO2. On day 3, 10 μL MTT (5 mg/mL) are added to each well. Cells are incubated in the presence of MTT for 4 hours @ 37° C., 5% CO2. 90 μL 10% SDS(+HCl) is added to each well to lyse cells and solubilize formazan.
# 786-O = assay: Tumor growth inhibition, 786-O; conditions: Homo sapiens, 786-0, read-out: Dasatinib GI50, renal cell adenocarcinoma
# Hep 3B = assay: MTT growth inhibition, Hep 3B; conditions: Homo sapiens, Hep3B, 8.0×10^3 cells/wells, 1.5% FBS, 78 Hr, normalized response data
# Method: as §3
# 769-P = assay: Tumor growth inhibition, 769-P; conditions: Homo sapiens, read-out: Dasatinib GI50, renal cell adenocarcinoma
# HuH7 = assay: MTT growth inhibition, HuH7; conditions: Homo sapiens, Huh-7, 8.0×10^3 cells/wells, 1.5% FBS, 78 Hr, normalized response data
# Method: as §3, with “formazan. […] OD570 measurements are taken, e.g., using BioTek Synergy HT multiplatform microplate reader. Growth inhibition curves IC50s and IC80s are determined using GraphPad Prism 5 statistical software.” for “formazan.”
# Caki-2 = assay: Tumor growth inhibition, Caki-2; conditions: Homo sapiens, read-out: Dasatinib GI50; Caki-2, clear cell carcinoma
# ACHN = assay: Tumor growth inhibition, ACHN; conditions: Homo sapiens, read-out: Dasatinib GI50, renal cell adenocarcinoma
# [1] = tested on: known Src protein substrates; assay: Phosphorylation of Src substrates in HT29 cells; conditions: human colon cancer cells (HT29)
# Method: (§4) Compounds of the invention may be Src signaling inhibitors that bind in the Src peptide substrate site. The activity of various compounds of the invention has been studied in c-Src (527F, constitutively active and transforming) transformed NIH3T3 cells and in human colon cancer cells (HT29).
# (§5) HT29 (colon cancer) and c-Src527F/NIH-3T3 (Src transformed) cell lines are treated with a compound of the invention or with AstraZeneca's ATP competitive Src inhibitor AZ28 (KX2-328). AZ28 serves as a positive comparator to show what a validated Src inhibitor should do in these assays. After treatment with compound, cells are lysed, subjected to PAGE and probed with a battery of antibodies. […] In addition, off-target protein phosphorylation is also investigated. Further, induction of apoptosis is evaluated via Caspase 3 cleavage. Multiple doses of each compound are tested because the trends in response to increasing drug concentration are the most reliable indicator of activity.
# (§6) A dose response curve is generated using the GI50 for the compounds of the invention in each of the two cell lines as the 1× concentration. […] The same range of multiples of the GI50 for AZ28 in these two cell lines are run as a comparison.
# [2] = tested on: known Src protein substrates; assay: Phosphorylation of Src substrates in c-Src (527F) transformed NIH3T3 cells
# Method: as §4, §5, §6
compound,measurement,setting,value
C[C@@H](NC(=O)Cc1ccc(-c2ccc(OCCN3CCOCC3)cc2F)nc1)C1CCCCC1,GI50,HT29,1.06 µM
same,GI50,c-Src527F/NIH 3T3,1.23 µM
same,IC50,Ba/F3-JAK3,1.29 µM
same,IC50,Ba/F3-JAK2,2.08 µM
Cc1nc(Nc2ncc(C(=O)Nc3c(C)cccc3Cl)s2)cc(N2CCN(CCO)CC2)n1 [Dasatinib],IC80,PLC/PRF/5,> 50 µM
same,GI50,786-O,2.01 µM
same,IC80,Hep 3B,> 50 µM
same,GI50,769-P,0.0463 µM
same,IC50,HuH7,1.97 µM
same,IC80,HuH7,7.13 µM
same,GI50,Caki-2,0.0142 µM
same,GI50,ACHN,0.0211 µM
O=C(Cc1ccc(-c2ccc(OCCN3CCOCC3)cc2)cn1)NCc1ccccc1 [KX2-391],phosphorylation level of known Src protein substrates,[1],reduce the phosphorylation level of known Src protein substrates in a dose-dependent fashion
same,phosphorylation level of known Src protein substrates,[2],reduce the phosphorylation level of known Src protein substrates in a dose-dependent fashion
O=C(Cc1ccc(-c2ccc(OCCN3CCOCC3)cc2F)nc1)NCCC1CCCC1,GI50,HT29,1.23 µM
same,GI50,c-Src527F/NIH 3T3,1.16 µM
same,IC50,Ba/F3-JAK3,1.2 µM
same,IC50,Ba/F3-JAK2,1.31 µM
